For this assay, the system named is HCV replicon in cell line ET (luc-ubi-neo/ET), Huh7 human hepatoma cells. The assay is described as follows: HCV subgenomic replicon assay (luciferase end point). The conditions noted are these: Hepatitis C virus, Huh-7, read-out: Antiviral activity: IC50 (μM). The class given is cell-based. The procedure: The anti-HCV activity of cyclosporine derivatives were evaluated in the HCV subgenomic replicon assay. The assay use the cell line ET (luc-ubi-neo/ET), which is a Huh7 human hepatoma cell line harboring an HCV replicon with a stable luciferase (Luc) reporter. HCV RNA replication was assessed by quantifying HCV replicon-derived luciferase activity. The antiviral activity of cyclosporine analogs were evaluated after drug treatment, the EC 50 and EC 90 were determined in subsequent assessments by using the luciferase end point (Krieger, N., et al., 2001, J. Virol. 75, 4614-4624; Pietschmann, T., et al., 2002, J. Virol. 76, 4008-4021; each of which is incorporated herein by reference).
For orientation: In antiviral work, replicon cells carry a viral genome segment that copies itself.

*1 amine or outer side, *2 acyl side, *3 side chain or, on linkers, in order; H or OH if unused. Where a SMILES comes first, the peptide text is derived from it. [ ]: non-standard residue; d: D form. MeBmt = C/C=C/C[C@@H](C)[C@@H](O)[C@H](NC)C(=O)O; X2 = C=CCOC(C)(C)C[C@@H](C(=O)[*:2])N(C)[*:1]; X1 = CCN(CC)CC[C@H](C(=O)[*:2])N(C)[*:1]; NMeL = CN[C@@H](CC(C)C)C(=O)O; NMeV = CN[C@H](C(=O)O)C(C)C; Abu = CC[C@H](N)C(=O)O

Experimental findings from patent US20150111815A1, “NOVEL CYCLOSPORIN DERIVATIVES FOR THE TREATMENT AND PREVENTION OF VIRAL INFECTIONS” (S&T Global Inc., priority 2011, published 2015) are described below.

As usually defined, the IC50 is the point on the concentration scale where inhibition reaches its midpoint.

As for `C/C=C/C[C@@H](C)[C@@H](O)[C@H]1C(=O)N[C@@H](CC)C(=O)N(C)[C@H](CCN(CC)CC)C(=O)N(C)[C@@H](C(C)C)C(=O)N[C@@H](C(C)C)C(=O)N(C)[C@@H](CC(C)C)C(=O)N[C@@H](C)C(=O)N[C@H](C)C(=O)N(C)[C@@H](CC(C)C)C(=O)N(C)[C@@H](CC(C)C)C(=O)N(C)[C@@H](C(C)C)C(=O)N1C` [Example 29, [(R)-2-(N,N-Diethylamino)ethyl-Sar]-3-[NMeVal]-4-cyclosporin] (cyclo(A[dA][NMeL][NMeL][NMeV][MeBmt][Abu][X1][NMeV]V[NMeL])), the IC50 was < 0.25 µM. The result for `C=CCOC(C)(C)C[C@H]1C(=O)N[C@@H](C(C)C)C(=O)N(C)[C@@H](CC(C)C)C(=O)N[C@@H](C)C(=O)N[C@H](C)C(=O)N(C)[C@@H](CC(C)C)C(=O)N(C)[C@@H](CC(C)C)C(=O)N(C)[C@@H](C(C)C)C(=O)N(C)[C@@H]([C@H](O)[C@H](C)C/C=C/C)C(=O)N[C@@H](CC)C(=O)N(C)[C@H](CCN(CC)CC)C(=O)N1C` [Example 28, [(R)-2-(N,N-Diethylamino)ethyl-Sar]-3-[(γ-allyloxy)-NMeLeu]-4-cyclosporin] (cyclo(A[dA][NMeL][NMeL][NMeV][MeBmt][Abu][X1][X2]V[NMeL])) reads < 0.25 µM; that for `C/C=C/C[C@@H](C)[C@@H](O)[C@H]1C(=O)N[C@@H](CC)C(=O)N(C)[C@H](CCN(C)C)C(=O)N(C)[C@@H](CC(C)(C)O)C(=O)N[C@@H](C(C)C)C(=O)N(C)[C@@H](CC(C)C)C(=O)N[C@@H](C)C(=O)N[C@H](C)C(=O)N(C)[C@@H](CC(C)C)C(=O)N(C)[C@@H](CC(C)C)C(=O)N(C)[C@@H](C(C)C)C(=O)N1C` [Example 20, [(R)-2-(N,N-Dimethylamino)ethyl-Sar]-3-[(γ-hydroxy)-NMeLeu]-4-cyclosporin], < 0.25 µM; that for `C/C=C/C[C@@H](C)[C@@H](O)[C@H]1C(=O)N[C@@H](CC)C(=O)N(C)[C@@H](CCN(C)C)C(=O)N(C)[C@@H](CC(C)(C)O)C(=O)N[C@@H](C(C)C)C(=O)N(C)[C@@H](CC(C)C)C(=O)N[C@@H](C)C(=O)N[C@H](C)C(=O)N(C)[C@@H](CC(C)C)C(=O)N(C)[C@@H](CC(C)C)C(=O)N(C)[C@@H](C(C)C)C(=O)N1C` [Example 32, [(S)-2-(N,N-Dimethylamino)ethyl-Sar]-3-[(γ-hydroxy)-NMeLeu]-4-cyclosporin], < 5 µM. On to `C/C=C/C[C@@H](C)[C@@H](O)[C@H]1C(=O)N[C@@H](CC)C(=O)N(C)[C@@H](CCN(CC)CC)C(=O)N(C)[C@@H](CC(C)(C)O)C(=O)N[C@@H](C(C)C)C(=O)N(C)[C@@H](CC(C)C)C(=O)N[C@@H](C)C(=O)N[C@H](C)C(=O)N(C)[C@@H](CC(C)C)C(=O)N(C)[C@@H](CC(C)C)C(=O)N(C)[C@@H](C(C)C)C(=O)N1C` [Example 33, [(S)-2-(N,N-Diethylamino)ethyl-Sar]-3-[(γ-hydroxy)-NMeLeu]-4-Cyclosporin], for which the IC50 was < 5 µM.

For the compound `C/C=C/C[C@@H](C)[C@@H](O)[C@H]1C(=O)N[C@@H](CC)C(=O)N(C)[C@H](CCCN(C)C)C(=O)N(C)[C@@H](CC(C)(C)O)C(=O)N[C@@H](C(C)C)C(=O)N(C)[C@@H](CC(C)C)C(=O)N[C@@H](C)C(=O)N[C@H](C)C(=O)N(C)[C@@H](CC(C)C)C(=O)N(C)[C@@H](CC(C)C)C(=O)N(C)[C@@H](C(C)C)C(=O)N1C` [Example 37, [(R)-3-(N,N-Dimethylamino)propyl-Sar]-3-[(γ-hydroxy)-NMeLeu]-4-cyclosporin], the half-inhibitory concentration (IC50) was < 0.25 µM. For `C/C=C/C[C@@H](C)[C@@H](O)[C@H]1C(=O)N[C@@H](CC)C(=O)N(C)[C@H](CCN(CC)CC)C(=O)N(C)[C@@H](CC(C)C)C(=O)N[C@@H](C(C)C)C(=O)N(C)[C@@H](CC(C)C)C(=O)N[C@@H](C)C(=O)N[C@H](C)C(=O)N(C)[C@@H](CC(C)C)C(=O)N(C)[C@@H](CC(C)C)C(=O)N(C)[C@@H](C(C)C)C(=O)N1C` [Example 25, [(R)-2-(N,N-Diethylamino)ethyl-Sar]-3-cyclosporin], the IC50 was < 0.25 µM.
